Results as given in patent publication US10035790B2, “RORγ modulators” (BRISTOL-MYERS SQUIBB COMPANY, priority 2012, dated 2018).

target: T1, ligand binding domain of human RORγ (A262-S507) (Homo sapiens, UniProt P51449); experiment: General RORγ SPA binding assay (competition with [3H]25-hydroxycholesterol); conditions: IC50, RORγ SPA binding assay, inhibition of [3H]25-hydroxycholesterol binding
T1 construct: made in house; host or cells: E. coli
T1 sequence (P51449 262-507): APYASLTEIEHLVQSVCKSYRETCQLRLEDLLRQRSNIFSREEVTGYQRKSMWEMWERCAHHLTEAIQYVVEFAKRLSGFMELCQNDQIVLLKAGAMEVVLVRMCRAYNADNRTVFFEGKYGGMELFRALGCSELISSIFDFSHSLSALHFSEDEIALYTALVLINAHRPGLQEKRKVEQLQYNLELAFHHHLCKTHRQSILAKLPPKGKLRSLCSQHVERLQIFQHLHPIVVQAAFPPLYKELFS
Method in brief: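 Scintillation counts from copper His-tag SPA beads (4 mg/mL, 30 min) gave percent inhibition of radioligand binding, from which IC50 values are derived. The E. coli-expressed His-tagged domain (50 nM) is first exposed to compound for 15 min at room temperature in PBS containing 0.5% fatty acid free BSA.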

Point of comparison: `Nc1ncc(C(=O)COc2ccnc(C(F)(F)F)n2)c(C2CCN(C(=O)Oc3c(F)cccc3F)CC2)n1` [Compound M3, 2,6-Difluorophenyl 4-[2-amino-5-({[2-(trifluoromethyl)pyrimidin-4-yl]oxy}acetyl)pyrimidin-4-yl]piperidine-1-carboxylate], IC50 0.0191 µM. Against it:
- Cc1nc(C)c(C(=O)NCc2ccnc(C(F)(F)F)n2)c(C2CCN(C(=O)Oc3ccccc3F)CC2)n1 [Compound A124, 2-Fluorophenyl 4-{2,6-dimethyl-5-[({[2-(trifluoromethyl)pyrimidin-4-yl]methyl}amino)carbonyl]pyrimidin-4-yl}piperidine-1-carboxylate] — 1.7-fold lower, 0.0114 µM

same assay, conditions: RORγ SPA binding assay, inhibition of [3H]25-hydroxycholesterol binding; read-out: IC50

Point of comparison: `Cc1ncc(/C(CO)=N/Oc2ccnc(C(F)(F)F)n2)c(C2CCN(C(=O)Cc3c(F)cccc3F)CC2)n1` [Compound B25, (Z)-2-(2,6-difluorophenyl)-1-(4-(5-(2-hydroxy-1-(((2-(trifluoromethyl)pyrimidin-4-yl)oxy)imino)ethyl)-2-methylpyrimidin-4-yl)piperidin-1-yl)ethanone], IC50 0.0112 µM. Against it:
- C/C(=N\Oc1cccc(C(F)(F)F)c1)c1cnc(C)nc1C1CCN(C(=O)Cc2c(F)cccc2F)CC1 [Compound B3, (E)-2-(2,6-Difluorophenyl)-1-(4-(2-methyl-5-(1-(3-(trifluoromethyl)phenoxyimino)ethyl)pyrimidin-4-yl)piperidin-1-yl)ethanone] — 3.6-fold lower, 0.0031 µM
- Cc1cc(C)cc(CNC(=O)c2c(C3CCN(C(=O)Cc4c(F)cccc4F)CC3)nc(C)nc2C(F)(F)F)c1 [Compound A112, 4-(1-(2-(2,6-Difluorophenyl)acetyl)piperidin-4-yl)-N-(3,5-dimethylbenzyl)-2-methyl-6-(trifluoromethyl)pyrimidine-5-carboxamide] — 3-fold higher, 0.0336 µM
- Cc1cc(C)cc(CNC(=O)c2cnc(C)nc2C2CCN(C(=O)Cc3ccccn3)CC2)c1 [Compound A38, N-(3,5-dimethylbenzyl)-2-methyl-4-(1-(2-(pyridin-2-yl)acetyl)piperidin-4-yl)pyrimidine-5-carboxamide] — 470-fold higher, 5.31 µM
- COc1nc(C)c(-c2nnc(-c3cccc(C(F)(F)F)n3)o2)c(C2CCN(C(=O)Nc3c(F)cccc3F)CC2)n1 [Compound C60, N-(2,6-Difluorophenyl)-4-[6-methyl-2-(methyloxy)-5-{5-[6-(trifluoromethyl)pyridin-2-yl]-1,3,4-oxadiazol-2-yl}pyrimidin-4-yl]piperidine-1-carboxamide] — 18-fold higher, 0.204 µM
- Cc1ncc(C(=O)NCc2ccc(Cl)c(Cl)c2)c(C2CCN(C(=O)Cc3c(F)ccc(F)c3F)CC2)n1 [Compound A13, N-(3,4-dichlorobenzyl)-2-methyl-4-(1-(2-(2,3,6-trifluorophenyl)acetyl)piperidin-4-yl)pyrimidine-5-carboxamide] — 4.6-fold higher, 0.052 µM
- Cc1ncc(C(C)(O)CNc2nccc(C(F)(F)F)n2)c(C2CCN(C(=O)Cc3c(F)cccc3F)CC2)n1 (stereo not drawn) [Compound D23, 2-(4-{1-[(2,6-Difluorophenyl)acetyl]piperidin-4-yl}-2-methylpyrimidin-5-yl)-1-{[4-(trifluoromethyl)pyrimidin-2-yl]amino}propan-2-ol] — 1.7-fold higher, 0.0185 µM
- Cc1ncc(C(O)(CCN)COc2cccc(C(F)(F)F)n2)c(C2CCN(C(=O)Nc3c(F)cccc3F)CC2)n1 (stereo not drawn) [Compound N31, 4-(5-(4-Amino-2-hydroxy-1-(6-(trifluoromethyl)pyridin-2-yloxy)butan-2-yl)-2-methylpyrimidin-4-yl)-N-(2,6-difluorophenyl)piperidine-1-carboxamide] — 55-fold higher, 0.62 µM
- Cc1cc(C)cc(CNC(=O)c2cnc(C)nc2C2CCN(C(=O)Cc3c(F)cccc3Cl)CC2)c1 [Compound A3, 4-(1-(2-(2-chloro-6-fluorophenyl)acetyl)piperidin-4-yl)-N-(3,5-dimethylbenzyl)-2-methylpyrimidine-5-carboxamide] — 1.6-fold lower, 0.0072 µM
- Cc1nc(C)c(-c2nnc(-c3ccnc(C(F)(F)F)n3)o2)c(C2CCN(S(=O)(=O)Cc3ccccc3F)CC2)n1 [Compound C34, 4-(1-{[(2-Fluorophenyl)methyl]sulfonyl}piperidin-4-yl)-2,6-dimethyl-5-{5-[2-(trifluoromethyl)pyrimidin-4-yl]-1,3,4-oxadiazol-2-yl}pyrimidine] — 7.8-fold higher, 0.0871 µM
- Cc1nc(N)nc(C2CCN(C(=O)Oc3cc(F)ccc3F)CC2)c1-c1nnc(-c2ccnc(C(F)(F)F)n2)o1 [Compound C54, 2,5-Difluorophenyl 4-(2-amino-6-methyl-5-{5-[2-(trifluoromethyl)pyrimidin-4-yl]-1,3,4-oxadiazol-2-yl}pyrimidin-4-yl)piperidine-1-carboxylate] — 1.9-fold higher, 0.0211 µM
- Cc1ncc(C(C)(F)CNc2ccnc(C(F)(F)F)n2)c(C2CCN(C(=O)Nc3c(F)cccc3F)CC2)n1 (stereo not drawn) [Compound E15, N-(2,6-Difluorophenyl)-4-[5-(1-fluoro-1-methyl-2-{[2-(trifluoromethyl)pyrimidin-4-yl]amino}ethyl)-2-methylpyrimidin-4-yl]piperidine-1-carboxamide] — 5-fold higher, 0.0565 µM
- Cc1nc(C)c(-c2nnc(-c3ccnc(C(F)(F)F)n3)o2)c(C2CCN(C(=O)Cc3c(F)cccc3F)CC2)n1 [Compound C5, 4-{1-[(2,6-Difluorophenyl)acetyl]piperidin-4-yl}-2,6-dimethyl-5-{5-[2-(trifluoromethyl)pyrimidin-4-yl]-1,3,4-oxadiazol-2-yl}pyrimidine] — 1.8-fold lower, 0.0063 µM
- Cc1nc(C)c(C(=O)NCc2ccnc(C(F)(F)F)c2)c(C2CCN(C(=O)Cc3c(F)cccc3F)CC2)n1 [Compound A61, 4-(1-(2-(2,6-difluorophenyl)acetyl)piperidin-4-yl)-2,6-dimethyl-N-((2-(trifluoromethyl)pyridin-4-yl)methyl)pyrimidine-5-carboxamide] — 3.4-fold higher, 0.0382 µM
- Cc1ncc(/C(COc2cccc(C(F)(F)F)n2)=N/O)c(C2CCN(C(=O)Nc3c(F)cccc3F)CC2)n1 [Compound N26, N-(2,6-difluorophenyl)-4-{5-[(1Z)—N-hydroxy-2-{[6-(trifluoromethyl)pyridin-2-yl]oxy}ethanimidoyl]-2-methylpyrimidin-4-yl}piperidine-1-carboxamide] — 13-fold higher, 0.141 µM
- Cc1ncc(C(=O)NCc2cc(F)cc(Cl)c2)c(C2CCN(C(=O)Cc3c(F)cccc3F)CC2)n1 [Compound A41, N-(3-chloro-5-fluorobenzyl)-4-(1-(2-(2,6-difluorophenyl)acetyl)piperidin-4-yl)-2-methylpyrimidine-5-carboxamide] — 2.3-fold lower, 0.0048 µM
- Cc1cnc(CNC(=O)c2cnc(C)nc2C2CCN(C(=O)Cc3c(F)cccc3F)CC2)cn1 [Compound A79, 4-(1-(2-(2,6-difluorophenyl)acetyl)piperidin-4-yl)-2-methyl-N-((5-methylpyrazin-2-yl)methyl) pyrimidine-5-carboxamide] — 470-fold higher, 5.26 µM
- Cc1nc(N)nc(C2CCN(C(=O)Nc3c(F)cccc3F)CC2)c1-c1ncc(-c2ccnc(C(F)(F)F)n2)o1 [Compound C69, 4-(2-amino-6-methyl-5-{5-[2-(trifluoromethyl)pyrimidin-4-yl]-1,3-oxazol-2-yl}pyrimidin-4-yl)-N-(2,6-difluorophenyl)piperidine-1-carboxamide] — 2.8-fold higher, 0.0308 µM
- Cc1nc(C)c(C(=O)COc2ccnc(C(F)(F)F)n2)c(C2CCN(C(=O)Nc3c(F)cccc3F)CC2)n1 [Compound M8, N-(2,6-Difluorophenyl)-4-[2,6-dimethyl-5-({[2-(trifluoromethyl)pyrimidin-4-yl]oxy}acetyl)pyrimidin-4-yl]piperidine-1-carboxamide] — 6.6-fold lower, 0.0017 µM
